Test results: the supplement of paper PMC10307832

Assays:
Assay in all cases: relative viability (nuclei count vs DMSO), 5 days (fraction); higher = more cells survive
EPLC-272H = test system: EPLC-272H
Procedure, shortened: (§1)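 Nuclei were stained with Hoechst during a one-step fixation (final 0.05% Triton X-100, 1% formaldehyde, 1 ug/ml Hoechst) carried out 5 days after dosing, then counted on 4× images. The cells, lung cancer lines in 1536-well plates, had been dosed by pin tool the day after seeding with one drug alone or a fixed anchor-drug dose plus five library-drug doses (not always all listed) in √10 steps. Relative viability is the nuclei count in treated wells divided by that in vehicle wells, and each value is the median of duplicate plates.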

LU99A = test system: LU99A
Procedure, shortened: as §1

NCI-H1563 = test system: NCI-H1563
Procedure, shortened: as §1

NCI-H2087 = test system: NCI-H2087
Procedure, shortened: as §1

NCI-H1793 = test system: NCI-H1793
Procedure, shortened: as §1

COR-L23 = test system: COR-L23
Procedure, shortened: as §1

LCLC-103H = test system: LCLC-103H
Procedure, shortened: as §1

NCI-H2405 = test system: NCI-H2405
Procedure, shortened: as §1

NCI-H1651 = test system: NCI-H1651
Procedure, shortened: as §1

NCI-H1944 = test system: NCI-H1944
Procedure, shortened: as §1

NCI-H650 = test system: NCI-H650
Procedure, shortened: as §1

**Q.** Which results are given for CC(=O)O[C@@]12CO[C@@H]1C[C@H](O)[C@@]1(C)C(=O)[C@H](O)C3=C(C)[C@@H](OC(=O)[C@H](O)[C@@H](NC(=O)OC(C)(C)C)c4ccccc4)C[C@@](O)([C@@H](OC(=O)c4ccccc4)[C@H]21)C3(C)C [Docetaxel] + CS(=O)(=O)N1CCN(Cc2cc3nc(-c4cccc5[nH]ncc45)nc(N4CCOCC4)c3s2)CC1 [Pictilisib] (partner 1 µM)?
**A.** relative viability (EPLC-272H; first compound 0.0002 µM): 0.27; relative viability (EPLC-272H; first compound 0.000632 µM): 0.198; relative viability (EPLC-272H; first compound 0.002 µM): 0.161; relative viability (EPLC-272H; first compound 0.006325 µM): 0.111; relative viability (EPLC-272H; first compound 0.02 µM): 0.126; relative viability (LU99A; first compound 0.0002 µM): 0.337; relative viability (LU99A; first compound 0.000632 µM): 0.249; relative viability (LU99A; first compound 0.002 µM): 0.267; relative viability (LU99A; first compound 0.006325 µM): 0.191; relative viability (LU99A; first compound 0.02 µM): 0.148; relative viability (NCI-H1563; first compound 0.0002 µM): 0.662; relative viability (NCI-H1563; first compound 0.000632 µM): 0.683; relative viability (NCI-H1563; first compound 0.002 µM): 0.71; relative viability (NCI-H1563; first compound 0.006325 µM): 0.564; relative viability (NCI-H1563; first compound 0.02 µM): 0.506; relative viability (NCI-H2087; first compound 0.0002 µM): 0.841; relative viability (NCI-H2087; first compound 0.000632 µM): 0.631; relative viability (NCI-H2087; first compound 0.002 µM): 0.284; relative viability (NCI-H2087; first compound 0.006325 µM): 0.34; relative viability (NCI-H2087; first compound 0.02 µM): 0.193; relative viability (NCI-H1793; first compound 0.0002 µM): 0.323; relative viability (NCI-H1793; first compound 0.000632 µM): 0.369; relative viability (NCI-H1793; first compound 0.002 µM): 0.279; relative viability (NCI-H1793; first compound 0.006325 µM): 0.289; relative viability (NCI-H1793; first compound 0.02 µM): 0.204; relative viability (COR-L23; first compound 0.0002 µM): 0.632; relative viability (COR-L23; first compound 0.000632 µM): 0.649; relative viability (COR-L23; first compound 0.002 µM): 0.42; relative viability (COR-L23; first compound 0.006325 µM): 0.124; relative viability (COR-L23; first compound 0.02 µM): 0.0817; relative viability (LCLC-103H; first compound 0.0002 µM): 0.537; relative viability (LCLC-103H; first compound 0.000632 µM): 0.514; relative viability (LCLC-103H; first compound 0.002 µM): 0.612; relative viability (LCLC-103H; first compound 0.006325 µM): 0.455; relative viability (LCLC-103H; first compound 0.02 µM): 0.251; relative viability (NCI-H2405; first compound 0.0002 µM): 0.393; relative viability (NCI-H2405; first compound 0.000632 µM): 0.429; relative viability (NCI-H2405; first compound 0.002 µM): 0.39; relative viability (NCI-H2405; first compound 0.006325 µM): 0.272; relative viability (NCI-H2405; first compound 0.02 µM): 0.182; relative viability (NCI-H1651; first compound 0.0002 µM): 0.477; relative viability (NCI-H1651; first compound 0.000632 µM): 0.443; relative viability (NCI-H1651; first compound 0.002 µM): 0.206; relative viability (NCI-H1651; first compound 0.006325 µM): 0.095; relative viability (NCI-H1651; first compound 0.02 µM): 0.0784; relative viability (NCI-H1944; first compound 0.0002 µM): 0.338; relative viability (NCI-H1944; first compound 0.000632 µM): 0.368; relative viability (NCI-H1944; first compound 0.002 µM): 0.318; relative viability (NCI-H1944; first compound 0.006325 µM): 0.322; relative viability (NCI-H1944; first compound 0.02 µM): 0.178; relative viability (NCI-H650; first compound 0.0002 µM): 0.75; relative viability (NCI-H650; first compound 0.000632 µM): 0.48; relative viability (NCI-H650; first compound 0.002 µM): 0.313; relative viability (NCI-H650; first compound 0.006325 µM): 0.274; relative viability (NCI-H650; first compound 0.02 µM): 0.207
